Values quoted from earlier work as cited in article PMC5292677 (Leukemia, 2016).
Like-named read-outs stand apart in the source and are kept apart here.

System: patients with MF
Conditions: cited from earlier work

## Cc1cnc(Nc2ccc(OCCN3CCCC3)cc2)nc1Nc1cccc(S(=O)(=O)NC(C)(C)C)c1 [fedratinib]
  Change in allele burden: no meaningful change in allele burden
Patients treated, no reference given
  CRP and IL-6 levels: CRP downregulation was reported without significant IL-6 reduction

## N#CC[C@H](C1CCCC1)n1cc(-c2ncnc3[nH]ccc23)cn1 [ruxolitinib]
Following 4 weeks' treatment
  TNFα level: downregulated
long-term treatment
  Change in allele burden: only a modest reduction

## C1=C/COCc2cc(ccc2OCCN2CCCC2)Nc2nccc(n2)-c2cccc(c2)COC/1 [pacritinib]
  Myelosuppression: lack of myelosuppression

## N#CCNC(=O)c1ccc(-c2ccnc(Nc3ccc(N4CCOCC4)cc3)n2)cc1 [momelotinib]
  Change in allele burden: no meaningful change in allele burden
